Results as given in ChEMBL document CHEMBL4706488, “Design, synthesis and biological evaluation of 2-amino-4-(1,2,4-triazol)pyridine derivatives as potent EGFR inhibitors to overcome TKI-resistance” (Eur J Med Chem, 2020).
Active and inactive are the calls of the source. No cut-off for these calls is given here.

Legend:
cells = assay type: functional, tissue-based; settings: Homo sapiens, U87MG Human EGFR vIII
Description: Antiproliferative activity against human U87MG Human EGFR vIII cells overexpressing EGFRvIII mutant assessed as inhibition of cell growth by MTT assay

[1] = biological target: Epidermal growth factor receptor (Homo sapiens, UniProt P00533, L858R/T790M); assay: biochemical; assay type: cell-based, Sf21
[2] = biological target: Epidermal growth factor receptor (Homo sapiens, UniProt P00533); assay: biochemical; assay type: cell-based, Sf21
Description: Inhibition of wild type N-terminal GST-tagged human EGFR cytoplasmic domain (669 to 1210 residues) expressed in baculovirus infected Sf21 cells using biotin-labeled TK substrate preincubated for 30 mins followed by substrate and ATP addition at Km concentration and further incubated for 20 mins by HTRF assay

NCI-H1975 [3] = assay: cells; assay type: functional, cell-based; settings: Homo sapiens
U-87 MG = assay: cells; assay type: functional, cell-based, U-87MG ATCC; settings: Homo sapiens;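 note: antiproliferative effect on U-87 MG cells carrying wild-type EGFR, growth inhibition read out by MTT assay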
Description: Antiproliferative activity against human U-87MG cells harboring wild type EGFR assessed as inhibition of cell growth by MTT assay

A-431 = assay: cells; assay type: functional, cell-based; settings: Homo sapiens;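 note: antiproliferative test in A-431 cells carrying wild-type EGFR, with cell growth inhibition read by MTT assay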
Description: Antiproliferative activity against human A-431 cells harboring wild type EGFR assessed as inhibition of cell growth by MTT assay

NCI-H1975 [4] = assay: Induction of apoptosis in human NCI-H1975 cells assessed as early apoptotic cells at 5 uM by annexinV-FITC/propidium iodide staining based flow cytometry analysis (reference value: 0.53 %); assay type: functional
NCI-H1975 [5] = assay: Induction of apoptosis in human NCI-H1975 cells assessed as necrotic cells at 20 uM by annexinV-FITC/propidium iodide staining based flow cytometry analysis (reference value: 0.44 %); assay type: functional
NCI-H1975 [6] = assay: Induction of apoptosis in human NCI-H1975 cells assessed as early apoptotic cells at 10 uM by annexinV-FITC/propidium iodide staining based flow cytometry analysis (reference value: 0.53 %); assay type: functional
NCI-H1975 [7] = assay: Induction of apoptosis in human NCI-H1975 cells assessed as late apoptotic cells at 20 uM by annexinV-FITC/propidium iodide staining based flow cytometry analysis (reference value: 0.42 %); assay type: functional
U87MG Human EGFR vIII = assay: Induction of apoptosis in human U87MG Human EGFR vIII cells by annexinV-FITC/propidium iodide staining based flow cytometry analysis; assay type: functional, cell-based
NCI-H1975 [8] = assay: Induction of apoptosis in human NCI-H1975 cells assessed as late apoptotic cells at 10 uM by annexinV-FITC/propidium iodide staining based flow cytometry analysis (reference value: 0.42 %); assay type: functional
NCI-H1975 [9] = assay: Induction of apoptosis in human NCI-H1975 cells assessed as live cells at 10 uM by annexinV-FITC/propidium iodide staining based flow cytometry analysis (reference value: 98.6 %); assay type: functional
NCI-H1975 [10] = assay: Induction of apoptosis in human NCI-H1975 cells assessed as early apoptotic cells at 20 uM by annexinV-FITC/propidium iodide staining based flow cytometry analysis (reference value: 0.53 %); assay type: functional
[11] = Potency index, ratio of lazertinib IC50 to test compound IC50 for antiproliferative activity against human U87MG Human EGFR vIII cells overexpressing EGFRvIII mutant assessed as inhibition of cell proliferation by MTT assay; assay type: functional
NCI-H1975 [12] = assay: Induction of apoptosis in human NCI-H1975 cells assessed as necrotic cells at 5 uM by annexinV-FITC/propidium iodide staining based flow cytometry analysis (reference value: 0.44 %); assay type: functional
[13] = Potency index, ratio of osimertinib IC50 to test compound IC50 for antiproliferative activity against human U87MG Human EGFR vIII cells overexpressing EGFRvIII mutant assessed as inhibition of cell proliferation by MTT assay; assay type: functional
NCI-H1975 [14] = assay: Induction of apoptosis in human NCI-H1975 cells assessed as late apoptotic cells at 5 uM by annexinV-FITC/propidium iodide staining based flow cytometry analysis (reference value: 0.42 %); assay type: functional
NCI-H1975 [15] = assay: Induction of apoptosis in human NCI-H1975 cells assessed as live cells at 20 uM by annexinV-FITC/propidium iodide staining based flow cytometry analysis (reference value: 98.6 %); assay type: functional
NCI-H1975 [16] = assay: Induction of apoptosis in human NCI-H1975 cells assessed as live cells at 5 uM by annexinV-FITC/propidium iodide staining based flow cytometry analysis (reference value: 98.6 %); assay type: functional
NCI-H1975 [17] = assay: Induction of apoptosis in human NCI-H1975 cells assessed as necrotic cells at 10 uM by annexinV-FITC/propidium iodide staining based flow cytometry analysis (reference value: 0.44 %); assay type: functional

Sequence of Epidermal growth factor receptor (Homo sapiens, UniProt P00533, L858R/T790M) (P00533 25-1210 T790M/L858R limits assumed): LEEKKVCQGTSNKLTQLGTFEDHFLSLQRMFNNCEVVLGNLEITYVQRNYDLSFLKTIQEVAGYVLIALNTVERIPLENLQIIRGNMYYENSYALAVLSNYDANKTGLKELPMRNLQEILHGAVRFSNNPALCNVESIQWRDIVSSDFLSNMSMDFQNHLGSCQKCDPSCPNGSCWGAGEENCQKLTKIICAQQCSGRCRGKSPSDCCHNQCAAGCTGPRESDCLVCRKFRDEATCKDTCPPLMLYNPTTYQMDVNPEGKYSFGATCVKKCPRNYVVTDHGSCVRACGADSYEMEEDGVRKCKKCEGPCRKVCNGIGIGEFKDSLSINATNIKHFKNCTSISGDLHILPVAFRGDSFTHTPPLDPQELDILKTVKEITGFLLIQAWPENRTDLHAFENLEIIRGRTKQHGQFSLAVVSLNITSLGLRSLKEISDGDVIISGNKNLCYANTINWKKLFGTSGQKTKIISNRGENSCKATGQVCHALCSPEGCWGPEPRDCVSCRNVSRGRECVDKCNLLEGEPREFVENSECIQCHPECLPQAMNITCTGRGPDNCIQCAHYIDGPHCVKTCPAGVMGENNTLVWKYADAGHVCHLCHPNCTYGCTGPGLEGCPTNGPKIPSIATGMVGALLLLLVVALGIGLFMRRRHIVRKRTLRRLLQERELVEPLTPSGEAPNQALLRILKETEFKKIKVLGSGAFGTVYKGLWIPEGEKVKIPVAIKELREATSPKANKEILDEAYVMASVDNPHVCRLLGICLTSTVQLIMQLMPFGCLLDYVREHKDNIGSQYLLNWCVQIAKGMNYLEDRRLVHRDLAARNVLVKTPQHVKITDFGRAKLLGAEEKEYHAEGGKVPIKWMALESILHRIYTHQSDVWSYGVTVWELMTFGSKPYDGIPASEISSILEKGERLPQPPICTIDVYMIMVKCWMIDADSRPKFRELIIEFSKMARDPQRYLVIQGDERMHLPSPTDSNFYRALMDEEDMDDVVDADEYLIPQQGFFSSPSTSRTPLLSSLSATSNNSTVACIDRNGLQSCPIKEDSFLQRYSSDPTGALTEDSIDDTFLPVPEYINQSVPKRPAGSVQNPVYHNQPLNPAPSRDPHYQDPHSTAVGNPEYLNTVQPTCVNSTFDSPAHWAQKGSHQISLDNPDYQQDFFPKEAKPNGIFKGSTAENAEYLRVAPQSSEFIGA
Sequence of Epidermal growth factor receptor (Homo sapiens, UniProt P00533) (P00533 whole entry): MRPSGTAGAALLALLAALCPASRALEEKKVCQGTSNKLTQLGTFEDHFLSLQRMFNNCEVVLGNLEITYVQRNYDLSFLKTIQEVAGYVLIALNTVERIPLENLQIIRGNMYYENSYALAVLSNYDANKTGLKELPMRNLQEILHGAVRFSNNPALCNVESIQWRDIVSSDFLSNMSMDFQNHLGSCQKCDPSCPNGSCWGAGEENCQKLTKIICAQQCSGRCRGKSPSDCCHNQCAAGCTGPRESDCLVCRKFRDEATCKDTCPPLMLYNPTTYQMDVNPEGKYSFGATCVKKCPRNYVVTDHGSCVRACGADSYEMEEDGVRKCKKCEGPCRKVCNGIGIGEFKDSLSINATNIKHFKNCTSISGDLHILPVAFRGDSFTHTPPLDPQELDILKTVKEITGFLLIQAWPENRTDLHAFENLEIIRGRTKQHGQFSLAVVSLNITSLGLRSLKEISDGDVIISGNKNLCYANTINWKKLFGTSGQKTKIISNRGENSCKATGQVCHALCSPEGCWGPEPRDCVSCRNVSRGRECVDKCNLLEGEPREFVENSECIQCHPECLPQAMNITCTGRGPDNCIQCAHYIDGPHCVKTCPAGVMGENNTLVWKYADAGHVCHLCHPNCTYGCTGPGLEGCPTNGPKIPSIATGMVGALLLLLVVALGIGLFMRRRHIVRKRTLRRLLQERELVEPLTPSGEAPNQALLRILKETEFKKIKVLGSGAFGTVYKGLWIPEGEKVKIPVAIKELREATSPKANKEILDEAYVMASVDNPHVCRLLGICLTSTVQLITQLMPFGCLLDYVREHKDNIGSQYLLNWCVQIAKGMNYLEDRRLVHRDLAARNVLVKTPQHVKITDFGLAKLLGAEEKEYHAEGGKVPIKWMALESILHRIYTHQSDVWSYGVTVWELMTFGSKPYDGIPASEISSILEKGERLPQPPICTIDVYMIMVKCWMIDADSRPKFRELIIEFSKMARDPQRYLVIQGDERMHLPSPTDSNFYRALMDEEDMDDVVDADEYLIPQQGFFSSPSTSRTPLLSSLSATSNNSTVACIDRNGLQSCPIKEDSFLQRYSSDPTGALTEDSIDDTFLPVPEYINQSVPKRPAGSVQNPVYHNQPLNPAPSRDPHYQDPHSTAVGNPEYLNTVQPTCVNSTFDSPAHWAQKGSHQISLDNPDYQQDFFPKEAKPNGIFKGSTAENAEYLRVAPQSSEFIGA

SMILES	IC50 (cells)	IC50 [1]	IC50 [2]	IC50 (NCI-H1975 [3])	IC50 (U-87 MG)	IC50 (A-431)	other results
C=CC(=O)Nc1cccc(Nc2cc(-n3c(CCCO)nnc3-c3ccc(F)cc3)ccn2)c1	> 100 µM	0.143 µM	0.196 µM	> 100 µM	21.7 µM	65.9 µM	–
C=CC(=O)Nc1cccc(Nc2cc(-n3c(C)nnc3-c3ccc(F)cc3)ccn2)c1	37.8 µM	–	–	21.4 µM	51.6 µM	12.2 µM	–
C=CC(=O)Nc1ccc(OC)c(Nc2cc(-n3c(CCCO)nnc3-c3ccc(F)cc3)ccn2)c1	> 100 µM	–	–	> 100 µM	> 100 µM	88.6 µM	–
C=CC(=O)Nc1cc(Nc2cc(-n3c(SC)nnc3-c3ccc(F)cc3)ccn2)c(OC)cc1N1CCC(N2CCN(C)CC2)CC1	25.6 µM	–	–	4.5 µM	3.6 µM	9.3 µM	–
C=CC(=O)Nc1cc(Nc2cc(-n3c(SC)nnc3-c3ccc(F)cc3)ccn2)ccc1N(C)CCN(C)C	4.1 µM	0.213 µM	0.156 µM	5.3 µM	2.4 µM	6 µM	Activity (NCI-H1975 [4]): 2.52%; Activity (NCI-H1975 [5]): 10.7%; Activity (NCI-H1975 [6]): 2.63%; Activity (NCI-H1975 [7]): 39%; Activity (U87MG Human EGFR vIII): inactive; Activity (NCI-H1975 [8]): 3.86%; Activity (NCI-H1975 [9]): 91.4%; Activity (NCI-H1975 [10]): 18%; Ratio IC50 [11]: 25; Activity (NCI-H1975 [12]): 0.92%; Ratio IC50 [13]: 3; Activity (NCI-H1975 [14]): 2.77%; Activity (NCI-H1975 [15]): 32.3%; Activity (NCI-H1975 [16]): 93.8%; Activity (NCI-H1975 [17]): 2.14%
COc1cc(N(C)CCN(C)C)ccc1Nc1cc(-n2c(SC)nnc2-c2ccc(F)cc2)ccn1	> 100 µM	–	–	41.9 µM	19.2 µM	> 100 µM	–
C=CC(=O)Nc1cc(Nc2nccc(-n3cc(CN(C)C)c(-c4ccccc4)n3)n2)c(OC)cc1N1CCOCC1 [LAZERTINIB]	> 100 µM	0.0027 µM	0.0346 µM	< 1 µM	33.2 µM	3.6 µM	–
C=CC(=O)Nc1cc(Nc2cc(-n3c(SC)nnc3-c3ccc(F)cc3)ccn2)c(OC)cc1N1CCC(N2CCOCC2)CC1	20.2 µM	0.112 µM	–	16.7 µM	15.2 µM	7 µM	–
C=CC(=O)Nc1cc(Nc2nccc(-c3cn(C)c4ccccc34)n2)c(OC)cc1N(C)CCN(C)C [OSIMERTINIB]	13.1 µM	–	–	[…]	4.5 µM	[…]	–
